Measurements published in PubChem BioAssay AID328 (DTP/NCI, 2004).
Values joined by “and” are separate entries in the source; they are usually repeats but may differ in a detail not shown here. Identical values can stand only once. Inconclusive results and toxic doses are left out.

System: BDF1 mice, P388 leukemia ip, median survival T/C
Test: NCI In Vivo Anticancer Drug Screen. Data for tumor model P388 Leukemia (intraperitoneal) in B6D2F1 (BDF1) mice
Conditions: endpoint: median survival time, higher = longer survival
Outline: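 Read-out is survival of treated animals expressed relative to the vehicle group, as a T/C ratio.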

[1] = dose: 100.0 mg/kg/injection, schedule: Q01DX009 (ip), vehicle: Klucel (hydroxypropylcellulose) (HPC)
[2] = dose: 200.0 mg/kg/injection, schedule: Q01DX009 (ip), vehicle: Klucel (hydroxypropylcellulose) (HPC)
[3] = dose: 400.0 mg/kg/injection, schedule: Q01DX009 (ip), vehicle: Klucel (hydroxypropylcellulose) (HPC)
[4] = dose: 100.0 mg/kg/injection, schedule: Q01DX009 (ip), vehicle: saline
[5] = dose: 100.0 mg/kg/injection, schedule: Q04DX003 (ip), vehicle: saline
[6] = dose: 200.0 mg/kg/injection, schedule: Q04DX003 (ip), vehicle: saline
[7] = dose: 400.0 mg/kg/injection, schedule: Q04DX003 (ip), vehicle: saline
[8] = dose: 50.0 mg/kg/injection, schedule: Q01DX009 (ip), vehicle: saline with Tween-80
[9] = dose: 100.0 mg/kg/injection, schedule: Q01DX009 (ip), vehicle: saline with Tween-80
[10] = dose: 200.0 mg/kg/injection, schedule: Q01DX009 (ip), vehicle: saline with Tween-80
[11] = dose: 100.0 mg/kg/injection, schedule: Q01DX001 (ip), vehicle: Klucel (hydroxypropylcellulose) (HPC)
[12] = dose: 100.0 mg/kg/injection, schedule: Q04DX003 (ip), vehicle: saline with Tween-80
[13] = dose: 25.0 mg/kg/injection, schedule: Q01DX009 (ip), vehicle: saline
[14] = dose: 50.0 mg/kg/injection, schedule: Q01DX009 (ip), vehicle: saline

In the case of `SCc1ccccn1`, the T/C (dose: 62.5 mg/kg/injection, schedule: Q01DX010 (ip), vehicle: carboxymethylcellulose (CMC)) is reported as 110 % of control, the T/C (dose: 125.0 mg/kg/injection, schedule: Q01DX010 (ip), vehicle: carboxymethylcellulose (CMC)) is reported as 110 % of control and the T/C (dose: 250.0 mg/kg/injection, schedule: Q01DX010 (ip), vehicle: carboxymethylcellulose (CMC)) is reported as 120 % of control.

In the case of `CCCCCCCCNc1ccccc1`, the T/C (dose: 100.0 mg/kg/injection, schedule: Q01DX001 (ip), vehicle: saline sonified) is reported as 87 % of control and the T/C (dose: 400.0 mg/kg/injection, schedule: Q01DX001 (ip), vehicle: saline sonified) is reported as 91 % of control.

With `CC1CCC(C)C1NC1=NCCO1` (stereo not drawn) the T/C (dose: 6.25 mg/kg/injection, schedule: Q01DX009 (ip), vehicle: saline with Tween-80) was 109 % of control, the T/C (dose: 12.5 mg/kg/injection, schedule: Q01DX009 (ip), vehicle: saline with Tween-80) was 100 % of control and the T/C (dose: 25.0 mg/kg/injection, schedule: Q01DX009 (ip), vehicle: saline with Tween-80) was 104 % of control.

In the case of `Nc1ccccc1SC1CC(=O)N(c2cccc3ccccc23)C1=O` (stereo not drawn), the T/C [1] is reported as 118 % of control, the T/C (dose: 100.0 mg/kg/injection, schedule: Q04DX003 (ip), vehicle: Klucel (hydroxypropylcellulose) (HPC)) is reported as 104 % of control and the T/C [2] is reported as 118 % of control. For the same compound, the T/C (dose: 200.0 mg/kg/injection, schedule: Q04DX003 (ip), vehicle: Klucel (hydroxypropylcellulose) (HPC)) was 100 % of control, the T/C [3] was 100 % of control and the T/C (dose: 400.0 mg/kg/injection, schedule: Q04DX003 (ip), vehicle: Klucel (hydroxypropylcellulose) (HPC)) was 90 % of control.

With `Cc1cc2cc3c(=O)[nH]c(=O)nc-3n(CC(O)C(O)C(O)COP(=O)(O)O)c2cc1C` (stereo not drawn) the T/C (dose: 66.0 mg/kg/injection, schedule: Q01DX009 (ip), vehicle: saline) was 100 % of control, the T/C [4] was 95 % of control and 100 % of control and the T/C [5] was 100 % of control. The T/C [6] was 113 % of control and the T/C [7] was 100 % of control.

With `CCOC(=O)C(=CC(CC)(C(=O)OCC)C(=O)OCC)C(=O)OCC` the T/C [4] was 95 % of control, the T/C (dose: 200.0 mg/kg/injection, schedule: Q01DX009 (ip), vehicle: saline) was 104 % of control and the T/C (dose: 400.0 mg/kg/injection, schedule: Q01DX009 (ip), vehicle: saline) was 104 % of control.

With `CS(=O)CC(O)(c1ccccc1)c1ccccn1` (stereo not drawn) the T/C [8] was 103 % of control, the T/C [9] was 110 % of control and the T/C [10] was 100 % of control.

For `CC(C)NC(=O)c1ccccc1S(=O)(=O)c1ccccc1C(=O)NC(C)C`, the T/C (dose: 100.0 mg/kg/injection, schedule: Q01DX001 (ip), vehicle: saline with Tween-80) was 108 % of control, the T/C (dose: 200.0 mg/kg/injection, schedule: Q01DX001 (ip), vehicle: saline with Tween-80) was 100 % of control and the T/C (dose: 400.0 mg/kg/injection, schedule: Q01DX001 (ip), vehicle: saline with Tween-80) was 100 % of control.

For `O=C1NC(c2ccc3ccccc3n2)Nc2ccccc21` (stereo not drawn), the T/C [1] was 105 % of control, the T/C [2] was 100 % of control and the T/C [3] was 110 % of control.

`Cc1ccc(S(=O)(=O)c2ccc(S(=O)(=O)c3ccc(C)cc3)c3c2no[n+]3[O-])cc1` was tested, and the T/C (dose: 15.0 mg/kg/injection, schedule: Q01DX009 (ip), vehicle: saline with Tween-80) was 107 % of control, the T/C (dose: 30.0 mg/kg/injection, schedule: Q01DX009 (ip), vehicle: saline with Tween-80) was 112 % of control and the T/C (dose: 60.0 mg/kg/injection, schedule: Q01DX009 (ip), vehicle: saline with Tween-80) was 112 % of control.

In the case of `Cc1cc(=O)[nH]c2c1ccc1[nH]c(=O)cc(C)c12`, the T/C [11] is reported as 91 % of control and the T/C (dose: 200.0 mg/kg/injection, schedule: Q01DX001 (ip), vehicle: Klucel (hydroxypropylcellulose) (HPC)) is reported as 87 % of control.

In the case of `CC(C)Cc1[nH]nc2c1C(=O)C(Nc1ccccc1)=CC2=O`, the T/C [12] is reported as 99 % of control, the T/C (dose: 200.0 mg/kg/injection, schedule: Q04DX003 (ip), vehicle: saline with Tween-80) is reported as 100 % of control and the T/C (dose: 400.0 mg/kg/injection, schedule: Q04DX003 (ip), vehicle: saline with Tween-80) is reported as 100 % of control.

`O=[N+]([O-])c1ccc(NCc2ccccc2)c2c1no[n+]2[O-]` was tested, and the T/C (dose: 35.0 mg/kg/injection, schedule: Q01DX009 (ip), vehicle: saline with Tween-80) was 92 % of control, the T/C (dose: 70.0 mg/kg/injection, schedule: Q01DX009 (ip), vehicle: saline with Tween-80) was 91 % of control and the T/C (dose: 140.0 mg/kg/injection, schedule: Q01DX009 (ip), vehicle: saline with Tween-80) was 92 % of control.

With `CC(O)(C(=O)O)c1ccccc1` (stereo not drawn) (tested in a mixture with another compound) the T/C (dose: 100.0 mg/kg/injection, schedule: Q01DX001 (ip), vehicle: saline) was 103 % of control, the T/C [5] was 100 % of control and the T/C (dose: 200.0 mg/kg/injection, schedule: Q01DX001 (ip), vehicle: saline) was 107 % of control. The T/C [6] was 113 % of control, the T/C (dose: 400.0 mg/kg/injection, schedule: Q01DX001 (ip), vehicle: saline) was 107 % of control and the T/C [7] was 95 % of control.

For `CCCCCCCCCCN1CCOCCOCCN(CCCCCCCCCC)CCOCCOCC1`, the T/C (dose: 1.56 mg/kg/injection, schedule: Q01DX005 (ip), vehicle: saline with Tween-80) was 113 % of control, the T/C (dose: 3.13 mg/kg/injection, schedule: Q01DX005 (ip), vehicle: saline with Tween-80) was 103 % of control and the T/C (dose: 6.25 mg/kg/injection, schedule: Q01DX005 (ip), vehicle: saline with Tween-80) was 113 % of control.

In the case of `CC(O)C1(O)C(O)CC(OC2c3cc4c(c(O)c3[C@@H]3C[C@@]2(C)OC32C=c3cc[nH]c3=N2)C(=O)c2cccc(O)c2C4=O)OC1C` (stereo partly drawn), the T/C (dose: 0.5 mg/kg/injection, schedule: Q01DX009 (ip), vehicle: saline with Tween-80) is reported as 105 % of control, the T/C (dose: 0.5 mg/kg/injection, schedule: Q01DX009 (ip), vehicle: saline) is reported as 103 % of control and 109 % of control and the T/C (dose: 1.0 mg/kg/injection, schedule: Q01DX009 (ip), vehicle: saline with Tween-80) is reported as 119 % of control. The T/C (dose: 1.0 mg/kg/injection, schedule: Q01DX009 (ip), vehicle: saline) was 118 % of control and 124 % of control, the T/C (dose: 2.0 mg/kg/injection, schedule: Q01DX009 (ip), vehicle: saline with Tween-80) was 111 % of control and the T/C (dose: 2.0 mg/kg/injection, schedule: Q01DX009 (ip), vehicle: saline) was 111 % of control and 118 % of control. The T/C (dose: 4.0 mg/kg/injection, schedule: Q01DX009 (ip), vehicle: saline with Tween-80) was 117 % of control and the T/C (dose: 8.0 mg/kg/injection, schedule: Q01DX009 (ip), vehicle: saline with Tween-80) was 122 % of control.

In the case of `C=C1C(=O)OC2CC3(C)CC(O)C(O)C(=C)C3CC12` (stereo not drawn), the T/C [13] is reported as 104 % of control, the T/C [14] is reported as 104 % of control and the T/C [4] is reported as 104 % of control.

With `COC1C(OC(=O)/C=C/C=C/C=C/C=C/C(=O)O)CCC2(CO2)C1C1(C)OC1CC=C(C)C` (stereo not drawn) the T/C (dose: 88.0 mg/kg/injection, schedule: Q04DX003 (ip), vehicle: saline with Tween-80) was 281 % of control, the T/C [5] was 100 % of control and the T/C (dose: 132.0 mg/kg/injection, schedule: Q04DX003 (ip), vehicle: saline with Tween-80) was 281 % of control. The T/C [6] was 117 % of control.

`COc1ccc(OP2OCC(C)O2)cc1` (stereo not drawn) was tested, and the T/C [8] was 103 % of control, the T/C [9] was 102 % of control and the T/C [10] was 102 % of control.

With `Clc1ccc(OCc2sc3ccc(Cl)cc3c2CN2CCCCC2)cc1` the T/C (dose: 25.0 mg/kg/injection, schedule: Q04DX003 (ip), vehicle: saline with Tween-80) was 100 % of control, the T/C (dose: 50.0 mg/kg/injection, schedule: Q04DX003 (ip), vehicle: saline with Tween-80) was 90 % of control and the T/C [12] was 90 % of control.

With `CNC1(c2ccccc2)C(=O)CC2CCC1C2` (stereo not drawn) the T/C (dose: 25.0 mg/kg/injection, schedule: Q01DX001 (ip), vehicle: Klucel (hydroxypropylcellulose) (HPC)) was 105 % of control, the T/C (dose: 50.0 mg/kg/injection, schedule: Q01DX001 (ip), vehicle: Klucel (hydroxypropylcellulose) (HPC)) was 105 % of control and the T/C [11] was 100 % of control.

For `CCCCc1ccc(C(=O)O)nc1`, the T/C (dose: 12.5 mg/kg/injection, schedule: Q01DX009 (ip), vehicle: saline) was 100 % of control, the T/C [13] was 102 % of control and the T/C [14] was 102 % of control.
